As a reminder, the vapor or sublimation pressure is the equilibrium pressure above the liquid or solid.

The values below come from the NIST ThermoML archive (doi:10.1016/j.fluid.2012.12.014).

Numbers after ± are expanded uncertainties.

The conditions of this series: Liquid, Closed cell (Static) method.

In the case of `O` [water], the “vapor or sublimation pressure” value by setting is: (383.2 K) 142.5 ± 2.1 kPa; (393.2 K) 198.7 ± 2.2 kPa; (403.2 K) 270 ± 2.5 kPa; (413.2 K) 361.7 ± 2.8 kPa; (423.2 K) 476.1 ± 3 kPa.
